Test results taken from article PMC9127750, “Structure-based design of CDC42 effector interaction inhibitors for the treatment of cancer” (Cell reports, 2022).
“And” between values parts separate entries of the source, which are not always exact repeats. Equal entries are not always repeated.

System: WM3248 melanoma cells, 486 antibodies
Test: Reverse phase protein arrays (RPPA)
Type: cell-based, Human
Source text: Pellets were snap frozen in liquid nitrogen and shipped to MD Anderson Cancer Center core RPPA facility for RPPA analysis (Table S5). Three biological replicates for each sample were generated.
Nomenclatures on the RPPA heatmaps: name_of_antibody.species_of_antibody.status_of_antibody. V - antibody validated; C - validation of antibody in progress; Q - antibody nonspecific; E – under evaluation; antibodies raised in M - mouse, G - goat, R - rabbit, or T - rat.

CN(C)c1cccc(Nc2cc(-c3ccccc3)nc(C3CCNCC3)n2)c1 [ARN22089, N1,N1-dimethyl-N3-(6-phenyl-2-(piperidin-4-yl)pyrimidin-4-yl)benzene-1,3-diamine]
c.Jun_pS73.R.V normalized signal (Norm_20 Average): 0.769 | c.Kit.R.V normalized signal (Norm_20 Average): 1.333 | c.Met_pY1234_Y1235.R.V normalized signal (Norm_20 Average): 1.008 | c.Myc.R.C normalized signal (Norm_20 Average): 0.930 | cGAS.R.V normalized signal (Norm_20 Average): 0.995 | cdc2_pY15.R.C normalized signal (Norm_20 Average): 0.940 | cdc25C.R.V normalized signal (Norm_20 Average): 0.832 | C.Raf.R.C normalized signal (Norm_20 replicates): 0.926 and 0.909 and 1.022 | C.Raf_pS338.R.V normalized signal (Norm_20 replicates): 1.047 and 0.977 and 1.202 | CA9.R.C normalized signal (Norm_20 replicates): 0.834 and 0.857 and 0.980 | CD2.M.C normalized signal (Norm_20 replicates): 0.856 and 0.882 and 0.876 | CD4.R.V normalized signal (Norm_20 replicates): 1.114 and 0.892 and 1.008 | CD5.M.C normalized signal (Norm_20 replicates): 0.915 and 0.968 and 0.950 | CD20.R.C normalized signal (Norm_20 replicates): 1.024 and 1.514 and 1.531 | CD26.R.V normalized signal (Norm_20 replicates): 1.033 and 0.940 and 1.351 | CD29.M.V normalized signal (Norm_20 replicates): 0.857 and 0.910 and 0.908 | CD31.M.V normalized signal (Norm_20 replicates): 0.884 and 0.896 | CD38.R.C normalized signal (Norm_20 replicates): 1.108 and 1.163 | CD44.R.C normalized signal (Norm_20 replicates): 0.959 and 1.005 | CD45.M.V normalized signal (Norm_20 replicates): 0.835 and 0.934 | CD49b.M.V normalized signal (Norm_20 replicates): 0.952 and 1.078 and 1.005 | CD68.M.C normalized signal (Norm_20 replicates): 0.919 and 0.910 | CD74.M.V normalized signal (Norm_20 replicates): 0.908 and 0.967 and 0.901 | CD134.R.V normalized signal (Norm_20 replicates): 0.960 and 0.966 | CD171.M.V normalized signal (Norm_20 replicates): 0.652 and 0.837 and 0.648 | CDK1_pT14.R.C normalized signal (Norm_20 replicates): 1.055 and 0.710 and 1.260 | CDK9.R.V normalized signal (Norm_20 replicates): 0.996 and 0.856 and 0.946 | CDKN2A.R.C normalized signal (Norm_20 replicates): 0.854 and 0.981 and 0.927 | CDT1.R.V normalized signal (Norm_20 replicates): 0.785 and 0.945 and 0.841 | CENP.A.R.V normalized signal (Norm_20 replicates): 0.821 and 2.735 and 1.018 | CHD1L.R.V normalized signal (Norm_20 replicates): 0.858 and 0.933 and 1.056 | CIITA.R.C normalized signal (Norm_20 replicates): 0.943 and 1.115 and 1.149 | COG3.R.V normalized signal (Norm_20 replicates): 0.982 and 0.987 and 1.164 | CRABP1.R.C normalized signal (Norm_20 replicates): 0.873 and 1.063 | CRABP2.R.V normalized signal (Norm_20 replicates): 0.668 and 1.048 and 0.808 | CREB_pS133.R.C normalized signal (Norm_20 replicates): 0.993 and 1.115 and 1.463 | CSK.R.C normalized signal (Norm_20 replicates): 0.890 and 0.821 and 1.057 | Calnexin.R.V normalized signal (Norm_20 replicates): 0.950 and 0.927 and 0.903 | Caspase.3.cleaved.R.C normalized signal (Norm_20 replicates): 1.050 and 1.052 and 0.937 | Caspase.7.cleaved..R.C normalized signal (Norm_20 replicates): 1.145 and 0.913 and 0.981 | Caspase.8.M.Q normalized signal (Norm_20 replicates): 0.921 and 1.010 and 0.953 | Caspase.8.cleaved.R.C normalized signal (Norm_20 replicates): 0.981 and 0.904 and 0.986 | Caveolin.1.R.V normalized signal (Norm_20 replicates): 0.827 and 0.896 and 0.874 | Cdc6.R.V normalized signal (Norm_20 replicates): 1.058 and 0.691 and 0.803 | Cdc42.R.C normalized signal (Norm_20 replicates): 0.945 and 1.025 and 1.019 | Chk1.M.C normalized signal (Norm_20 replicates): 0.656 and 0.821 and 0.882 | Chk1_pS296.R.V normalized signal (Norm_20 replicates): 0.970 and 0.828 and 1.051 | Chk1_pS345.R.C normalized signal (Norm_20 replicates): 1.119 and 1.167 and 1.225 | Chk2.M.V normalized signal (Norm_20 replicates): 0.658 and 0.864 and 1.104 | Chk2_pT68.R.C normalized signal (Norm_20 replicates): 0.997 and 1.290 and 1.096 | Claudin.7.R.V normalized signal (Norm_20 replicates): 0.881 and 1.747 and 1.050 | Collagen.VI.R.V normalized signal (Norm_20 replicates): 1.201 and 0.989 and 0.848 | Complex.II.Subunit.M.V normalized signal (Norm_20 replicates): 0.922 and 0.878 and 1.206 | Connexin.43.R.C normalized signal (Norm_20 replicates): 0.931 and 1.019 | Coup.TFII.R.C normalized signal (Norm_20 replicates): 1.109 and 0.920 and 0.985 | Cox2.R.C normalized signal (Norm_20 replicates): 1.356 and 1.253 and 1.438 | Cox.IV.R.V normalized signal (Norm_20 replicates): 1.130 and 0.864 and 0.981 | Creb.R.C normalized signal (Norm_20 replicates): 0.982 and 1.104 | CtIP.R.V normalized signal (Norm_20 replicates): 0.991 and 0.925 and 0.970 | Cyclin.B1.R.V normalized signal (Norm_20 replicates): 0.884 and 0.735 and 1.285 | Cyclin.D1.R.C normalized signal (Norm_20 replicates): 0.990 and 1.056 and 0.913 | Cyclin.D3.M.V normalized signal (Norm_20 replicates): 0.612 and 0.725 and 0.909 | Cyclin.E1.R.V normalized signal (Norm_20 replicates): 0.878 and 0.955 and 0.872 | Cyclophilin.F.M.V normalized signal (Norm_20 replicates): 0.906 and 0.884 and 1.010 | D.a.Tubulin.R.V normalized signal (Norm_20 replicates): 1.030 and 0.992 | DAPK1_pS308.M.C normalized signal (Norm_20 replicates): 1.481 and 2.154 and 2.593 | DAPK2.R.C normalized signal (Norm_20 replicates): 0.964 and 1.008 | DDB.1.R.V normalized signal (Norm_20 replicates): 1.193 and 0.735 and 0.837 | DDR1.R.V normalized signal (Norm_20 replicates): 0.952 and 1.004 and 1.031 | DDR1_pY513.R.C normalized signal (Norm_20 replicates): 1.061 and 1.271 and 0.913 | DJ1.R.V normalized signal (Norm_20 replicates): 1.006 and 0.828 and 0.954 | DM.Histone.H3.R.V normalized signal (Norm_20 replicates): 3.935 and 0.881 | DM.K9.Histone.H3.M.V normalized signal (Norm_20 replicates): 2.137 and 0.933 | DNA.Ligase.IV.R.C normalized signal (Norm_20 replicates): 0.747 and 1.076 | DNA_POLG.R.V normalized signal (Norm_20 replicates): 1.105 and 1.113 and 1.034 | c.Jun_pS73.R.V normalized signal (Norm_20 replicates): 0.847 and 0.671 and 0.789 | c.Kit.R.V normalized signal (Norm_20 replicates): 1.304 and 1.335 and 1.361 | c.Met_pY1234_Y1235.R.V normalized signal (Norm_20 replicates): 1.007 and 1.003 and 1.014 | c.Myc.R.C normalized signal (Norm_20 replicates): 0.879 and 0.953 and 0.957 | cGAS.R.V normalized signal (Norm_20 replicates): 0.887 and 1.171 and 0.926 | cdc2_pY15.R.C normalized signal (Norm_20 replicates): 0.878 and 0.795 and 1.146 | cdc25C.R.V normalized signal (Norm_20 replicates): 0.758 and 0.751 and 0.986
